The conditions of data set [1]: for effect of the appearance of the component in DMEM on H2O2 during storage: 3 days of storage at −25° C., FIG. 5d; for effect of the presence of the component in DMEM on H202 in PSM during storage: three days of storage at 8° C., FIG. 3b; for effect of the component on H2O2 in CAP-stimulated PBS during storage: at 8° C. (FIG. 3a) (so in the source). The procedure:
The general research strategy described herein is illustrated in FIG. 1b. I mL of PSM was made by the vertical irradiation on the medium in a well on a 12-well plate. Then, the PSM was transferred to a 1.5 mL centrifuge tube by pipette. The centrifuge tubes were stored in refrigerators with different internal temperatures (8° C. and −25° C.) for 3 days. Additionally, some centrifuge tubes were stored at 22° C., for the investigation of PSM degradation at room temperature. Ultimately, the PSM was either transferred to culture the seeded cancer cells in a 96-well plate or transferred into a black wall 96-well plate to measure for H2O2 concentration. Because PBS is not suitable for cell culture, the protocols used to transfer the CAP-stimulated PBS are slightly different from those used to transfer the CAP-stimulated DMEM.
The protocols to prepare PSM are the same among different experiments. 1 mL of PBS or DMEM (or modified DMEM, such as cysteine/methionine-free DMEM) in a well on a Coming™ Falcon™ 12-well plate was treated by CAP for 1 or 2 minutes. The gap between the end of dielectric plasma tube and the bottom of 12-well plate was 3 cm.
H2O2 containing PBS and H2O2 containing DMEM were prepared by adding 30 wt¾ H2O2 solution to PBS and DMEM, respectively.
The amino acid(s) containing PBS, calcium containing PBS, magnesium containing PBS, glucose containing PBS, phenol red containing PBS, and amino acid(s) containing DMEM were prepared by adding and dissolving specific amino acid(s), calcium chloride solution, magnesium chloride solution, D-glucose, phenol red solution or an amino acid derivative (such as 3-nitro-L-tyrosine) in PBS and DMEM, respectively. With the exception of PBS and DMEM, the added components were purchased from Sigma Aldrich.
50 μL of CAP-stimulated medium or PBS to be analyzed for H2O2 concentration was transferred to a well on a black-wall Coming™ Falcon™ 96-well clear bottom plate in triplicate. Subsequently, according to standard protocols provided by Sigma Aldrich (St. Louis, MO), the H2O2 concentration in the cold plasma-stimulated medium was measured as follows. First, 50 μL of red peroxidase substrate stock solution, 200 μL of peroxidase stock solution, and 4.75 ml of assay buffer were mixed to prepare H2O2 probe solution. 50 μL of probe solution was then added in the black 96-well plate and mixed with 50 μL of the CAP-stimulated medium or PBS. After 30 min of storage at the room temperature, with protecting from light, a Hybrid Technology HI microplate reader (BioTek Instruments, Winooski, VT) was used to measure the fluorescence with an excitation wavelength at 540 nm and an emission wavelength at 590 nm. The final measured fluorescent strength of the experimental group was obtained by deducting the measured fluorescence of the control group from the measured fluorescence of the experimental group. The standard H202 solution was used to prepare the standard H202 concentration-fluorescence curve. Based on this standard curve, we obtained the H202 concentration in CAP-stimulated medium or PBS. The triplicate experiments were independently repeated for three times

Another data set concerns MDA-MB-231 cells. Kind of data set: MTT cell viability of breast cancer cells cultured in CAP-stimulated media. It is filed as cell-based, human. To be noted: CAP treatment time 2 minutes, storage at −25° C. for 3 days, FIG. 5e.

Here are results for six compounds from US12605541B2, “Stabilized anti-cancer cold atmospheric plasma (CAP)-stimulated media and methods for preparing and using same” (The George Washington University, priority 2015, dated 2026).

The structures appear in SMILES notation. Where two headings read alike, the source gives them in different places.

Procedure for MDA-MB-231 cells: All DMEM and PBS were mixed with 1% (v/v) antibiotic (penicillin and streptomycin) (Thermo Fisher Scientific) before any experiments were performed. […] All cancer cell lines were seeded with a confluence of 3×10^4 cells/mL and a volume of 100 μL in each well on a 96-well plate and were cultured for 6 hours in a complete media composed of Dulbecco's modified Eagle's medium supplemented with 10% (v/v) fetal bovine serum (Thermo Fisher Scientific). and 1% (v/v) antibiotic (penicillin and streptomycin) solution under standard cell culture conditions (a humidified, 37° C., 5% CO2 environment). In each experiment, 6 wells in a single column on the 96-well plate were seeded with cancer cells.
First, the initial culture medium which had been cultured cells for 6 hours was removed before this step. […] In each experiment, 6 wells in a single column on the 96-well plate were seeded with cancer cells. […]
The cancer cells in the 96-well plates were cultured in the 96-well plate under standard cell culture conditions (a humidified, 37° C., 5% CO2 environment) for 3 days. […] The 96-well plate filled with hydrochloric acid containing isopropanol solution was then read by a Hybrid Technology HI microplate reader (BioTek Instruments, Winooski, VT) at a 570 nm of absorbance. […] The average value of measured cell viability from 6 wells was regarded as the cell viability measured from one independent experiment. […]

For the compound `N[C@@H](CS)C(=O)O` [cysteine], in data set [1], the “effect of the component on H2O2 degradation in CAP-stimulated PBS during freezing storage” value is given as “two most reactive components”, the “effect of the component on H202 degradation in CAP-stimulated PBS-based solution” value (shortened to “effect … in CAP-stimulated PBS-based solution”) is “most significant degradation”, the “effect of the appearance of the component in DMEM on H2O2 during storage” value is “complete consumption of H2O2” and the “effect of the presence of the component in DMEM on H202 in PSM during storage” value is listed as “noticeable H202 degradation”. Also, the “effect of the appearance of the component in DMEM on the anti-cancer capacity of PSM” value in the data set on MDA-MB-231 cells is recorded as “significantly aggravates the degradation”.

As for `NCCCC[C@H](N)C(=O)O` [lysine], the “effect of the component on H2O2 in CAP-stimulated PBS during storage” value (“effect … in CAP-stimulated PBS during storage” for short) in data set [1] is “inhibit the degradation”. The “effect of the component on H2O2 degradation in CAP-stimulated PBS during freezing storage” value in data set [1] (storage at −25° C., FIG. 5c) is given as “aggravate the degradation”.

For the compound `CSCC[C@H](N)C(=O)O` [methionine], in data set [1], the “effect of the component on H2O2 degradation in CAP-stimulated PBS during freezing storage” value is “two most reactive components”, the “effect … in CAP-stimulated PBS-based solution” value was “most significant degradation”, the “effect of the appearance of the component in DMEM on H2O2 during storage” value is listed as “complete consumption of H2O2” and the “effect of the presence of the component in DMEM on H202 in PSM during storage” value is listed as “noticeable H202 degradation”. Moreover, the “effect of the appearance of the component in DMEM on the anti-cancer capacity of PSM” value with MDA-MB-231 cells was “significantly aggravates the degradation”.

Turning to `N[C@@H](Cc1ccccc1)C(=O)O` [phenylalanine], in data set [1], the “effect … in CAP-stimulated PBS-based solution” value was “noticeable degradation” and the “effect … in CAP-stimulated PBS during storage” value is given as “noticeable H2O2 degradation”.

On to `N[C@@H](Cc1c[nH]c2ccccc12)C(=O)O` [tryptophan], for which, in data set [1], the “effect of the component on H2O2 degradation in CAP-stimulated PBS during freezing storage” value is “aggravate the degradation” and the “effect … in CAP-stimulated PBS during storage” value is listed as “inhibit the degradation”.

For the compound `N[C@@H](Cc1ccc(O)cc1)C(=O)O` [tyrosine], in data set [1], the “effect of the component on H2O2 degradation in CAP-stimulated PBS during freezing storage” value is given as “aggravate the degradation”.
